In US20250136606A1, “MODULATORS OF TRPML, THEIR COMPOSITIONS AND METHODS OF USE” (Caraway Therapeutics, Inc., priority 2021, published 2025):

Legend:
Assay type in all cases: cell-based
Settings in all cases: fluorescent calcium assay
[1] = molecular target: T1, TRPML3 (Homo sapiens, UniProt Q8TDD5); test: Fluorescent TRPML3 assay (performed as for TRPML1, substituting the TRPML3 subtype)
T1 construct: expressed in transfected cells
T1 sequence (Q8TDD5 1-553): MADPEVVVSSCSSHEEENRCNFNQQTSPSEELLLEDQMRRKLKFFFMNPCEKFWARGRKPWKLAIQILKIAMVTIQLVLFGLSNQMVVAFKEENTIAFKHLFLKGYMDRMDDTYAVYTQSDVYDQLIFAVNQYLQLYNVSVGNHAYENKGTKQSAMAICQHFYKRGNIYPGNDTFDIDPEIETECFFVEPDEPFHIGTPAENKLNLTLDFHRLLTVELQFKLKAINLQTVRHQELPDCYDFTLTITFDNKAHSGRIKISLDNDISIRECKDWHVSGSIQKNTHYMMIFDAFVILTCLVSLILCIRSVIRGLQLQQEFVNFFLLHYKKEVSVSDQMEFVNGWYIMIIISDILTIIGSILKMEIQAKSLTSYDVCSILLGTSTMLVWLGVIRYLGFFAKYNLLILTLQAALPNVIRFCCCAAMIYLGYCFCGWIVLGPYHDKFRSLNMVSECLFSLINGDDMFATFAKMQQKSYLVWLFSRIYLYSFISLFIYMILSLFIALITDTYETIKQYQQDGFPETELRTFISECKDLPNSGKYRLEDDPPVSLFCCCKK
Procedure, shortened: (§1)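 Agonist activity is scored as percent of plate controls from Fluo4 fluorescence after dye-loaded, doxycycline-induced HEK-293 Trex cells meet compound in high-calcium (10 mM) Ringer's. Compounds run in half-log dilutions from 20 micromolar final, in triplicate.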

[2] = molecular target: T2, TRPML2 (Homo sapiens, UniProt Q8IZK6); test: Fluorescent TRPML2 assay (performed as for TRPML1, substituting the TRPML2 subtype)
T2 construct: expressed in transfected cells
T2 sequence (Q8IZK6 1-566): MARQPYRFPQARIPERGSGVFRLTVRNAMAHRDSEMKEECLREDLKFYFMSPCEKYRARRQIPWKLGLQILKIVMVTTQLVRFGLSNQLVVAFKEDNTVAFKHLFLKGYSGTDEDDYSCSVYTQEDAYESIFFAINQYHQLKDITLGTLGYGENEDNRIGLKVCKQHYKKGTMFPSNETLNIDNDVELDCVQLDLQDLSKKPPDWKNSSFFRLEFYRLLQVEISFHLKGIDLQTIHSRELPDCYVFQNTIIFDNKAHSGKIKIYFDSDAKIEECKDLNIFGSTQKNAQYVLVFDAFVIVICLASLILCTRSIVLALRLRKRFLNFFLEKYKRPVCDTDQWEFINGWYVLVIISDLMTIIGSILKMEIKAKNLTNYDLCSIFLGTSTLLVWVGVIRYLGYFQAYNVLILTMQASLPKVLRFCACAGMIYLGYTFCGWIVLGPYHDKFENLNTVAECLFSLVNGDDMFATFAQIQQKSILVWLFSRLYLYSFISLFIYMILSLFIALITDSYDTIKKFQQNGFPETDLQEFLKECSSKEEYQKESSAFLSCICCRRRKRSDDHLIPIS
Procedure, shortened: as §1

[3] = molecular target: TRPML1 (Homo sapiens, UniProt Q9GZU1); test: Fluorescent TRPML1 assay (Fluo4-AM calcium fluorescence in doxycycline-induced HEK-293 Trex cells)
Procedure, shortened: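 EC50 values come from non-linear regression of percent activity, normalized to on-plate positive and negative controls, with fluorescence read at 480 nm excitation and 540 nm emission. Fluo4-AM-loaded (1 µM) doxycycline-induced HEK-293 Trex cells expressing mutated human TRPML1 were exposed in 10 mM calcium Ringer's to 6 nM–20 µM compound, in triplicate.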

TRPML1, sequence (Q9GZU1 whole entry L15A/L16A/L577A/L578A, form open): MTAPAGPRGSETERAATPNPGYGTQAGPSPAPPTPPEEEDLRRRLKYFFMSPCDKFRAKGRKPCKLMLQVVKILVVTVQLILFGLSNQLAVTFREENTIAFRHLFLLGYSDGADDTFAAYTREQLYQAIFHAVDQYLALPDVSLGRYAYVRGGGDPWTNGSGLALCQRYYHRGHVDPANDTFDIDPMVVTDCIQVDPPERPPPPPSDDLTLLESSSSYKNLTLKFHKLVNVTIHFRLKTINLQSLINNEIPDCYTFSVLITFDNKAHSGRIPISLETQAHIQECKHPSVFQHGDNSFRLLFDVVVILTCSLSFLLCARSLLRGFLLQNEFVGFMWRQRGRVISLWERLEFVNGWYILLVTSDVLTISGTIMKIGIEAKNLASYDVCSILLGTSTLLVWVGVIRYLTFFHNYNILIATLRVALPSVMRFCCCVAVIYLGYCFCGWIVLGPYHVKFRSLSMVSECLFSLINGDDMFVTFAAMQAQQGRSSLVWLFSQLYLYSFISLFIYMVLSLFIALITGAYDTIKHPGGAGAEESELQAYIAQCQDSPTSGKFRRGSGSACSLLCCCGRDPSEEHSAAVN

Row | EC50 [1] [nM] | EC50 [2] [nM] | EC50 [3] [nM] | Compound
1 | < 100 | 500 to 2000 | < 100 | CC1CN(C(=O)OC(C)(C)C)CCN1c1ncnc2c1c(C1CCOCC1)cn2-c1cccc(Cl)c1 (stereo not drawn) [Compound 466, tert-butyl 4-(7-(3-chlorophenyl)-5-(tetrahydro-2H-pyran-4-yl)-7H-pyrrolo[2,3-d]pyrimidin-4-yl)-3-methylpiperazine-1-carboxylate]
2 | 100 to 500 | > 2000 | 100 to 500 | C[C@H]1CN(C(=O)OC(C)(C)C)CCN1c1ncnc2c1c(C1CCOCC1)cn2-c1cc(F)cc(F)c1 [Compound 468, tert-butyl (S)-4-(7-(3,5-difluorophenyl)-5-(tetrahydro-2H-pyran-4-yl)-7H-pyrrolo[2,3-d]pyrimidin-4-yl)-3-methylpiperazine-1-carboxylate]
3 | 100 to 500 | 500 to 2000 | 100 to 500 | C[C@@H]1CN(C(=O)OC(C)(C)C)CCN1c1ncnc2c1c(C1CCOCC1)cn2-c1cccc(F)c1 [Compound 469, tert-butyl (R)-4-(7-(3-fluorophenyl)-5-(tetrahydro-2H-pyran-4-yl)-7H-pyrrolo[2,3-d]pyrimidin-4-yl)-3-methylpiperazine-1-carboxylate]
4 | 100 to 500 | 500 to 2000 | 500 to 2000 | C[C@@H]1CN(C(=O)OC(C)(C)C)CCN1c1ncnc2c1c(C1=CCOCC1)cn2-c1cccc(F)c1 [Compound 471, tert-butyl (R)-4-(5-(3,6-dihydro-2H-pyran-4-yl)-7-(3-fluorophenyl)-7H-pyrrolo[2,3-d]pyrimidin-4-yl)-3-methylpiperazine-1-carboxylate]
5 | 100 to 500 | 500 to 2000 | 100 to 500 | C[C@H]1CN(C(=O)OC(C)(C)C)CCN1c1ncnc2c1c(C1=CCOCC1)cn2-c1cccc(F)c1 [Compound 472, tert-butyl (S)-4-(5-(3,6-dihydro-2H-pyran-4-yl)-7-(3-fluorophenyl)-7H-pyrrolo[2,3-d]pyrimidin-4-yl)-3-methylpiperazine-1-carboxylate]
6 | 100 to 500 | 500 to 2000 | 100 to 500 | C[C@H]1CN(C(=O)OC(C)(C)C)CCN1c1ncnc2c1c(C1=CCOCC1)cn2-c1cc(F)cc(F)c1 [Compound 473, tert-butyl (S)-4-(7-(3,5-difluorophenyl)-5-(3,6-dihydro-2H-pyran-4-yl)-7H-pyrrolo[2,3-d]pyrimidin-4-yl)-3-methylpiperazine-1-carboxylate]
7 | > 2000 | > 2000 | > 2000 | C[C@H]1CN(C(=O)OC(C)(C)C)CCN1c1ncnc2c1c(C1COC1)cn2-c1cccc(F)c1 [Compound 474, tert-butyl (S)-4-(7-(3-fluorophenyl)-5-(oxetan-3-yl)-7H-pyrrolo[2,3-d]pyrimidin-4-yl)-3-methylpiperazine-1-carboxylate]
8 | 100 to 500 | > 2000 | 500 to 2000 | C[C@H]1CN(C(=O)OC(C)(C)C)CCN1c1ncnc2c1c(C1COC1)cn2-c1cc(F)cc(F)c1 [Compound 475, tert-butyl (S)-4-(7-(3,5-difluorophenyl)-5-(oxetan-3-yl)-7H-pyrrolo[2,3-d]pyrimidin-4-yl)-3-methylpiperazine-1-carboxylate]
9 | < 100 | < 100 | < 100 | Cc1cn(-c2cc(C#N)ccn2)c2ncnc(N3CCN(C(=O)OC(C)(C)C)C[C@@H]3C)c12 [Compound 476, tert-butyl (S)-4-(7-(4-cyanopyridin-2-yl)-5-methyl-7H-pyrrolo [2,3-d]pyrimidin-4-yl)-3-methylpiperazine-1-carboxylate]
10 | < 100 | < 100 | < 100 | Cc1cn(-c2cc(C#N)ccn2)c2ncnc(N3C[C@@H](C)N(C(=O)OC(C)(C)C)C[C@@H]3C)c12 [Compound 477, tert-butyl (2R,5S)-4-(7-(4-cyanopyridin-2-yl)-5-methyl-7H-pyrrolo[2,3-d]pyrimidin-4-yl)-2,5-dimethylpiperazine-1-carboxylate]
11 | < 100 | < 100 | < 100 | CCc1cn(-c2cc(C#N)ccn2)c2ncnc(N3CCN(C(=O)OC(C)(C)C)C[C@@H]3C)c12 [Compound 478, tert-butyl (S)-4-(7-(4-cyanopyridin-2-yl)-5-ethyl-7H-pyrrolo[2,3-d]pyrimidin-4-yl)-3-methylpiperazine-1-carboxylate]
12 | < 100 | < 100 | < 100 | CCc1cn(-c2cc(C#N)ccn2)c2ncnc(N3C[C@@H](C)N(C(=O)OC(C)(C)C)C[C@@H]3C)c12 [Compound 479, tert-butyl (2R,5S)-4-(7-(4-cyanopyridin-2-yl)-5-ethyl-7H-pyrrolo[2,3-d]pyrimidin-4-yl)-2,5-dimethylpiperazine-1-carboxylate]
13 | < 100 | 500 to 2000 | < 100 | Cc1cn(-c2cc(F)ccn2)c2ncnc(N3C[C@@H](C)N(C(=O)OC(C)(C)C)C[C@@H]3C)c12 [Compound 480, tert-butyl (2R,5S)-4-(7-(4-fluoropyridin-2-yl)-5-methyl-7H-pyrrolo[2,3-d]pyrimidin-4-yl)-2,5-dimethylpiperazine-1-carboxylate]
14 | < 100 | < 100 | < 100 | C[C@H]1CN(C(=O)OC(C)(C)C)CCN1c1ncnc2c1c(C(F)(F)F)cn2-c1cc(C#N)ccn1 [Compound 481, tert-butyl (S)-4-(7-(4-cyanopyridin-2-yl)-5-(trifluoromethyl)-7H-pyrrolo[2,3-d]pyrimidin-4-yl)-3-methylpiperazine-1-carboxylate]
15 | < 100 | 100 to 500 | < 100 | CC(C)(C)OC(=O)N1CCCN(c2ncnc3c2c(C2CC2)cn3-c2cc(C#N)ccn2)CCC1 [Compound 482, tert-butyl 5-(7-(4-cyanopyridin-2-yl)-5-cyclopropyl-7H-pyrrolo[2,3-d]pyrimidin-4-yl)-1,5-diazocane-1-carboxylate]
16 | < 100 | < 100 | < 100 | C[C@@H]1CN(c2ncnc3c2c(C(F)(F)F)cn3-c2cc(C#N)ccn2)[C@@H](C)CN1C(=O)OC(C)(C)C [Compound 483, tert-butyl (2R,5S)-4-(7-(4-cyanopyridin-2-yl)-5-(trifluoromethyl)-7H-pyrrolo[2,3-d]pyrimidin-4-yl)-2,5-dimethylpiperazine-1-carboxylate]
17 | < 100 | 100 to 500 | < 100 | C[C@H]1CN(C(=O)OC(C)(C)C)CCN1c1ncnc2c1c(C(C)(C)O)cn2-c1cc(C#N)ccn1 [Compound 484, tert-butyl (S)-4-(7-(4-cyanopyridin-2-yl)-5-(2-hydroxypropan-2-yl)-7H-pyrrolo[2,3-d]pyrimidin-4-yl)-3-methylpiperazine-1-carboxylate]
18 | 500 to 2000 | 500 to 2000 | < 100 | C[C@H]1CN(C(=O)OC(C)(C)C)CCN1c1ncnc2c1c(N1CCCC1)cn2-c1ncc(C#N)s1 [Compound 485, tert-butyl (S)-4-(7-(5-cyanothiazol-2-yl)-5-(pyrrolidin-1-yl)-7H-pyrrolo[2,3-d]pyrimidin-4-yl)-3-methylpiperazine-1-carboxylate]
19 | < 100 | 100 to 500 | < 100 | CCN(CCOC)c1cn(-c2cc(C#N)ccn2)c2ncnc(N3CCN(C(=O)OC(C)(C)C)C[C@@H]3C)c12 [Compound 486, tert-butyl (S)-4-(7-(4-cyanopyridin-2-yl)-5-(ethyl(2-methoxyethyl)amino)-7H-pyrrolo[2,3-d]pyrimidin-4-yl)-3-methylpiperazine-1-carboxylate]
